Results as given in ChEMBL document CHEMBL4177663, “Discovery and structure-activity relationship study of 1,3,6-trisubstituted 1,4-diazepane-7-ones as novel human kallikrein 7 inhibitors” (Bioorg Med Chem Lett, 2017).

Key:
Trypsin = Trypsin (Homo sapiens, UniProt P07477+P07478+P35030); assay: Inhibition of human trypsin preincubated for 10 mins followed by Boc-Gln-Ala-Arg-MCA peptide substrate addition measured after 30 mins by fluorescence analysis; assay type: protein assay
[1] = Inhibition of human chymotrypsin preincubated for 10 mins followed by Suc-Ala-Ala-Pro-Phe-MCA peptide substrate addition measured after 30 mins by fluorescence analysis
Kallikrein-5 = target: T1, Kallikrein-5 (Homo sapiens, UniProt Q9Y337); assay: Inhibition of recombinant human C-terminal 10-His tagged KLK5 preincubated for 10 mins followed by Boc-Val-Pro-Arg-MCA peptide substrate addition measured after 30 mins by fluorescence analysis
T1 sequence (Q9Y337 whole entry): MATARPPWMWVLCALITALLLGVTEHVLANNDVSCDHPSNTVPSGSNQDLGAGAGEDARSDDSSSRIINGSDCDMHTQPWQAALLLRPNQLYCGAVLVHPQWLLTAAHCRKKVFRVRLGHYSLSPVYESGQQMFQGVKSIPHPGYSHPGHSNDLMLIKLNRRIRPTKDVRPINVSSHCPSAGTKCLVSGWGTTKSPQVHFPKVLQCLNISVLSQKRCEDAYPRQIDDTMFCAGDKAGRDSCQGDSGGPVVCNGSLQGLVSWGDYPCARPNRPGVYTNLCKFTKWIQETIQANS

Kallikrein-7 = Kallikrein-7 (Homo sapiens, UniProt P49862); assay: Inhibition of thermolysin activated recombinant human C-terminal 10-His tagged KLK7 preincubated for 10 mins followed by MOCAc-Arg-Pro-Lys-Pro-Val-Glu-Nva-Trp-Arg-Lys(Dnp)-NH2 peptide substrate addition measured after 30 mins by fluorescence analysis
Chain of Kallikrein-7 (P49862 whole entry): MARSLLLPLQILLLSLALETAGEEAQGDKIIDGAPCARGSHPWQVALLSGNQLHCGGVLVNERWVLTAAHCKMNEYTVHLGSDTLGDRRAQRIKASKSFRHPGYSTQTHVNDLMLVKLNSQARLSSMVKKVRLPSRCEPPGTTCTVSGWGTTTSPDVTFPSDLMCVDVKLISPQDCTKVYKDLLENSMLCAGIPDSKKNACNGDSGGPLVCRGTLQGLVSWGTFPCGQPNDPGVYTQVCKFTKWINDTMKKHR

COc1ccc(Cl)cc1C[C@@H]1CN/C(=N\N(C)C)CN(CC(=O)Nc2cccc(C(=O)O)c2)C1=O.Cl
IC50 (Trypsin): > 30 µM | IC50 [1]: 30 µM | IC50 (Kallikrein-5): > 30 µM | IC50 (Kallikrein-7): 1.9 µM

COc1ccc(Cl)cc1C[C@@H]1CN/C(=N\N(C)C)CN(CC(=O)Nc2ccccn2)C1=O
IC50 (Kallikrein-7): 16 µM

COc1ccc(Cl)cc1C[C@@H]1CN/C(=N\N(C)C)CN(CC(=O)Nc2cccnc2)C1=O
IC50 (Kallikrein-7): 9 µM

COc1ccc(Cl)cc1C[C@@H]1CN/C(=N\OCC(C)C)CN(CC(=O)Nc2cccc(C(=O)O)c2)C1=O
IC50 (Kallikrein-7): > 30 µM

COc1ccc(Cl)cc1C[C@@H]1CN/C(=N\N(C)C)CN(CC(=O)Nc2cccc(S(C)(=O)=O)c2)C1=O
IC50 (Trypsin): > 30 µM | IC50 [1]: 24 µM | IC50 (Kallikrein-5): > 30 µM | IC50 (Kallikrein-7): 0.82 µM

COc1ccc(Cl)cc1C[C@@H]1CN/C(=N\O)CN(CC(=O)Nc2cccc(C(=O)O)c2)C1=O
IC50 (Kallikrein-7): > 30 µM

CCO/N=C1/CN(CC(=O)Nc2cccc(C(=O)O)c2)C(=O)[C@H](Cc2cc(Cl)ccc2OC)CN1
IC50 (Kallikrein-7): 13 µM

COc1ccc(Cl)cc1C[C@@H]1CN/C(=N\N(C)C)CN(CC(=O)Nc2ccccc2C(=O)O)C1=O
IC50 (Kallikrein-7): > 30 µM

COc1ccc(Cl)cc1C[C@@H]1CN/C(=N\N(C)C)CN(CC(=O)Nc2ccccc2)C1=O
IC50 (Kallikrein-7): 4.5 µM

COc1ccc(Cl)cc1C[C@@H]1CN/C(=N\N(C)C)CN(CC(=O)Nc2ccc(C(=O)O)cc2)C1=O
IC50 (Kallikrein-7): 30 µM

COc1ccc(Cl)cc1C[C@@H]1CNC(=O)CN(CC(=O)Nc2ccc(O)c(C(=O)O)c2)C1=O
IC50 (Kallikrein-7): > 30 µM

COc1ccc(Cl)cc1C[C@@H]1CN/C(=N\Oc2cc(F)cc(F)c2)CN(CC(=O)Nc2ccc(O)c(C(=O)O)c2)C1=O
IC50 (Kallikrein-7): 5.8 µM

CO/N=C1/CN(CC(=O)Nc2cccc(C(=O)O)c2)C(=O)[C@H](Cc2cc(Cl)ccc2OC)CN1
IC50 (Kallikrein-7): 14 µM

COc1ccc(Cl)cc1C[C@@H]1CN/C(=N\Oc2c(F)cccc2F)CN(CC(=O)Nc2cccc(C(=O)O)c2)C1=O
IC50 (Kallikrein-7): 5.4 µM

COc1ccc(Cl)cc1C[C@H]1CN/C(=N\Oc2cc(F)cc(F)c2)CN(CC(=O)Nc2ccc(O)c(C(=O)O)c2)C1=O
IC50 (Kallikrein-7): > 30 µM
